# Data taken from patent US20040224981A1, “Antibacterial methods and compositions” (priority 2003, published 2004).
# Like-named read-outs stand apart in the source and are kept apart here.
# How the values were obtained:
# [1] = test system: S. aureus; assay: MIC against S. aureus strains and clinical isolates (broth microdilution); type: cell-based, Staphylococcus aureus
# Procedure: were tested against a collection of clinical isolates of S. aureus including strains that were multi-resistant to mupirocin and to other agents such as gentamicin and oxacillin.
# The acetate and mupirocin salts of the MRS inhibitor compound 5 were tested against a collection of both low and high-level mupirocin resistant clinical isolates of S. aureus (Table 6).
# The bacterial strains were tested for susceptibility to mupirocin and MRSi compound 2 using the broth microdilution method in accordance with NCCLS guideline to determine their MICs.
# Briefly, the MIC and checkerboard titration assays were performed with strains in microtiter trays with cation-supplemented Mueller-Hinton broth (Difco). Inocula were prepared by suspending growth from blood agar plates in sterile saline to a density equivalent to that of a 0.5 McFarland standard and were diluted […] to produce a final inoculum of 5×10^5 CFU/ml. The trays were incubated aerobically overnight. Standard quality control strains were included with each run. Fractional inhibitory concentrations (FICs) were calculated as the MIC of drug A or B in combination/MIC of drug A or B alone, and the FIC index was obtained by adding the two FICs. FIC indices were interpreted as synergistic if the values were ≦0.5, additive or indifferent if the values were >0.5 to 4, and antagonistic if the values were >4.0.
# [2] = test system: E. faecalis; assay: MIC against E. faecalis; type: cell-based; details: Enterococcus faecalis, Table 8, read-out: MIC
# Procedure: The MRS inhibitor 4 alone and in combination with mupirocin (mupirocin salt and 1:1 combination) were tested against a collection of Gram-positive pathogens.
# (§1) MRSi compound 5 alone and in combination with mupirocin was tested recent clinical isolates of E. faecalis (n=28) and E. faecium (n=23). Both the acetate salt and mupirocinate salts of MRSi compound 5 maintained potent activity against vancomycin-susceptible and—resistant enterococci (Tables 8, 9, and 10).
# [3] = test system: E. faecium; assay: MIC against E. faecium; type: cell-based; details: Enterococcus faecium, ATCC33667; Table 8; E. faecium ATCC 33667; read-out: MIC
# Procedure: as §1
# [4] = Staphylococcus aureus, ATCC43300, S. aureus ATCC 43300 (ORSA), read-out: MIC
# [5] = Staphylococcus aureus, NRS 1 / VISA, S. aureus NRS1 (VISA), read-out: MIC
# [6] = Staphylococcus aureus, NRS107, S. aureus NRS107 (HL Mup rest.), read-out: MIC
# [7] = Staphylococcus aureus, S. aureus 10-420 (LL Mup. Rest.), read-out: MIC
# [8] = Staphylococcus aureus, S. aureus 14-354 (LL Mup. Rest.), read-out: MIC
# [9] = Staphylococcus aureus, S. aureus 25-670 (HL Mup. Rest.), read-out: MIC
# [10] = Staphylococcus aureus, S. aureus 31-1334 (LL Mup Rest.), read-out: MIC
# [11] = Staphylococcus aureus, S. aureus 36-1298 (LL Mup. Rest.), read-out: MIC
# [12] = Staphylococcus aureus, S. aureus 87-2797 (HL Mup. Rest.), read-out: MIC
# [13] = Staphylococcus aureus, S. aureus 87-2797 (Mup. Susc.), read-out: MIC
# [14] = Staphylococcus aureus, S. aureus 101-100 (Mup. Susc.), read-out: MIC
# [15] = Staphylococcus aureus, S. aureus LZ1 (HL Mup rest.), read-out: MIC
# [16] = Staphylococcus aureus, S. aureus LZ6 (HL Mup rest.), read-out: MIC
# [17] = Staphylococcus aureus, S. aureus LZ8 (LL Mup. Rest.), read-out: MIC
# [18] = Staphylococcus aureus, S. aureus LZ9, read-out: MIC
# [19] = Staphylococcus aureus, S. aureus LZ10, read-out: MIC
# [20] = Staphylococcus aureus, S. aureus Miles Hall, read-out: MIC
# [21] = Staphylococcus aureus, S. aureus Oxford, read-out: MIC
# [22] = Staphylococcus aureus, all S. aureus strains of Table 1, read-out: MIC 90
# [23] = all S. aureus isolates of Table 6
compound,measurement,setting,value
"O=c1cc(NC[C@H]2CCC[C@@H]2NCc2ccc(Cl)c(Cl)c2)[nH]c2ccccc12 [MRSi cmpd 3, 2-{[(1R, 2S)-2-(3,4-Dichlorobenzylamino)cyclopentylmethyl]amino}-1H-quinolin-4-one]",MIC,[1]; [4],4 µg/mL
same,MIC,[1]; [5],4 µg/mL
same,MIC,[1]; [6],1 µg/mL
same,MIC,[1]; [7],2 µg/mL
same,MIC,[1]; [8],4 µg/mL
same,MIC,[1]; [9],4 µg/mL
same,MIC,[1]; [10],2 µg/mL
same,MIC,[1]; [11],1 µg/mL
same,MIC,[1]; [12],4 µg/mL
same,MIC,[1]; [13],2 µg/mL
same,MIC,[1]; [14],2 µg/mL
same,MIC,[1]; [15],2 µg/mL
same,MIC,[1]; [16],2 µg/mL
same,MIC,[1]; [17],4 µg/mL
same,MIC,[1]; [18],2 µg/mL
same,MIC,[1]; [19],2 µg/mL
same,MIC,[1]; [20],2 µg/mL
same,MIC,[1]; [21],2 µg/mL
same,MIC90,[1]; [22],4 µg/mL
same,MIC Range,[1]; all S. aureus strains of Table 1 (mupirocin-susceptible and -resistant),1 to 4 µg/mL
same,MIC,"[2]; ATCC 51299 / VRE, E. faecalis ATCC 51299 (VRE)",0.5 µg/mL
same,MIC,[2]; E. faecalis 1,0.12 µg/mL
same,MIC,[2]; E. faecalis 7,0.5 µg/mL
same,MIC,[3],0.03 µg/mL
Cc1onc(-c2ccccc2)c1C(=O)N[C@@H]1C(=O)N2[C@@H]1SC(C)(C)[C@@H]2C(=O)O [Oxacillin],MIC,[1]; [4],4 µg/mL
same,MIC,[1]; [5],> 64 µg/mL
same,MIC,"[1]; Staphylococcus aureus, NRS 1 / VISA, VISA, S. aureus NRS1 (Mu50), read-out: MIC",> 64 µg/mL
same,MIC,"[1]; Staphylococcus aureus, NRS 3 / VISA, VISA, S. aureus NRS3 (HIP5827), read-out: MIC",> 64 µg/mL
same,MIC,"[1]; Staphylococcus aureus, NRS 4 / VISA, VISA, S. aureus NRS4 (HIP5836), read-out: MIC",64 µg/mL
same,MIC,"[1]; Staphylococcus aureus, NRS 18 / VISA, VISA, S. aureus NRS18 (HIP06854), read-out: MIC",2 µg/mL
same,MIC,"[1]; Staphylococcus aureus, NRS 24 / VISA, VISA, S. aureus NRS24 (HIP09143), read-out: MIC",32 µg/mL
same,MIC,"[1]; Staphylococcus aureus, NRS 49 / VISA, VISA, S. aureus NRS49 (Korea), read-out: MIC",> 64 µg/mL
same,MIC,"[1]; Staphylococcus aureus, NRS54, Table 6, high-level mupirocin-resistant S. aureus NRS54, read-out: MIC",> 64 µg/mL
same,MIC,"[1]; Staphylococcus aureus, NRS 54 / VISA, VISA, S. aureus NRS54 (Brazil), read-out: MIC",> 64 µg/mL
same,MIC,"[1]; Staphylococcus aureus, NRS 56 / VISA, VISA, S. aureus NRS56 (Brazil), read-out: MIC",> 64 µg/mL
same,MIC,[1]; [6],0.12 µg/mL
same,MIC,"[1]; Staphylococcus aureus, NRS107, Table 6, high-level mupirocin-resistant S. aureus NRS107, read-out: MIC",0.12 µg/mL
same,MIC,"[1]; Staphylococcus aureus, NRS127, Table 6, low-level mupirocin-resistant S. aureus NRS127, read-out: MIC",64 µg/mL
same,MIC,[1]; [7],16 µg/mL
same,MIC,[1]; [8],> 64 µg/mL
same,MIC,[1]; [9],> 64 µg/mL
same,MIC,[1]; [10],> 64 µg/mL
same,MIC,[1]; [11],0.25 µg/mL
same,MIC,[1]; [12],> 64 µg/mL
same,MIC,[1]; [13],> 64 µg/mL
same,MIC,[1]; [14],16 µg/mL
same,MIC,[1]; [15],> 64 µg/mL
same,MIC,[1]; [16],> 64 µg/mL
same,MIC,[1]; [17],> 64 µg/mL
same,MIC,[1]; [18],> 64 µg/mL
same,MIC,[1]; [19],> 64 µg/mL
same,MIC,[1]; [20],0.25 µg/mL
same,MIC,[1]; [21],0.015 µg/mL
same,MIC,"[1]; Staphylococcus aureus, Table 6, S. aureus (mupirocin-susceptible) 010-100, read-out: MIC",8 µg/mL
same,MIC,"[1]; Staphylococcus aureus, Table 6, S. aureus (mupirocin-susceptible) 087-2789, read-out: MIC",> 64 µg/mL
same,MIC,"[1]; Staphylococcus aureus, Table 6, S. aureus (mupirocin-susceptible) LZ9, read-out: MIC",> 64 µg/mL
same,MIC,"[1]; Staphylococcus aureus, Table 6, S. aureus (mupirocin-susceptible) LZ10, read-out: MIC",> 64 µg/mL
same,MIC,"[1]; Staphylococcus aureus, Table 6, high-level mupirocin-resistant S. aureus 010-420, read-out: MIC",8 µg/mL
same,MIC,"[1]; Staphylococcus aureus, Table 6, high-level mupirocin-resistant S. aureus 25-670, read-out: MIC",> 64 µg/mL
same,MIC,"[1]; Staphylococcus aureus, Table 6, high-level mupirocin-resistant S. aureus 87-2797, read-out: MIC",> 64 µg/mL
same,MIC,"[1]; Staphylococcus aureus, Table 6, high-level mupirocin-resistant S. aureus 1079101, read-out: MIC",0.25 µg/mL
same,MIC,"[1]; Staphylococcus aureus, Table 6, high-level mupirocin-resistant S. aureus LZ1, read-out: MIC",> 64 µg/mL
same,MIC,"[1]; Staphylococcus aureus, Table 6, high-level mupirocin-resistant S. aureus LZ6, read-out: MIC",> 64 µg/mL
same,MIC,"[1]; Staphylococcus aureus, Table 6, low-level mupirocin-resistant S. aureus 014-354, read-out: MIC",> 64 µg/mL
same,MIC,"[1]; Staphylococcus aureus, Table 6, low-level mupirocin-resistant S. aureus 031-1334, read-out: MIC",64 µg/mL
same,MIC,"[1]; Staphylococcus aureus, Table 6, low-level mupirocin-resistant S. aureus 036-1298, read-out: MIC",8 µg/mL
same,MIC,"[1]; Staphylococcus aureus, Table 6, low-level mupirocin-resistant S. aureus 1081148, read-out: MIC",8 µg/mL
same,MIC,"[1]; Staphylococcus aureus, Table 6, low-level mupirocin-resistant S. aureus LZ8, read-out: MIC",> 64 µg/mL
same,MIC,"[1]; Staphylococcus aureus, Table 6, low-level mupirocin-resistant S. aureus Miles Hall, read-out: MIC",0.12 µg/mL
same,MIC50,"[1]; Staphylococcus aureus, all S. aureus isolates of Table 6, read-out: MIC50",> 64 µg/mL
same,MIC90,"[1]; Staphylococcus aureus, all S. aureus isolates of Table 6, read-out: MIC90",> 64 µg/mL
same,MIC90,[1]; [22],> 64 µg/mL
Gentamicin,MIC,[1]; S. aureus 10-420 (LL Mup. Rest.),64 µg/mL
same,MIC,[1]; S. aureus 14-354 (LL Mup. Rest.),>64 µg/mL
same,MIC,[1]; S. aureus 25-670 (HL Mup. Rest.),>64 µg/mL
same,MIC,[1]; S. aureus 31-1334 (LL Mup Rest.),64 µg/mL
same,MIC,[1]; S. aureus 36-1298 (LL Mup. Rest.),0.5 µg/mL
same,MIC,[1]; S. aureus 87-2797 (HL Mup. Rest.),0.25 µg/mL
same,MIC,[1]; S. aureus 87-2797 (Mup. Susc.),0.25 µg/mL
same,MIC,[1]; S. aureus 101-100 (Mup. Susc.),0.12 µg/mL
same,MIC,[1]; S. aureus ATCC 43300 (ORSA),4 µg/mL
same,MIC,[1]; S. aureus LZ1 (HL Mup rest.),0.5 µg/mL
same,MIC,[1]; S. aureus LZ6 (HL Mup rest.),0.25 µg/mL
same,MIC,[1]; S. aureus LZ8 (LL Mup. Rest.),64 µg/mL
same,MIC,[1]; S. aureus LZ9,64 µg/mL
same,MIC,[1]; S. aureus LZ10,64 µg/mL
same,MIC,[1]; S. aureus Miles Hall,0.5 µg/mL
same,MIC,[1]; S. aureus NRS1 (VISA),>64 µg/mL
same,MIC,[1]; S. aureus NRS107 (HL Mup rest.),0.25 µg/mL
same,MIC,[1]; S. aureus Oxford,0.5 µg/mL
same,MIC90,[1]; all S. aureus strains of Table 1,>64 µg/mL
"N-(4-bromo-5-(1-fluorovinyl)-3-methylthiophen-2-ylmethyl)-N′(1H-quinolin-4-one)propane-1,3-diamine Mupirocinate [MRSi Cmpd 5 mupirocinate]",MIC50,[1]; [23],0.12 µg/mL
same,MIC90,[1]; [23],1 µg/mL
